From patent US20230047788A1, “COMPOSITIONS COMPRISING 5-CHOLESTEN-3, 25-DIOL, 3-SULFATE (25HC3S) OR PHARMACEUTICALLY ACCEPTABLE SALT THEREOF AND AT LEAST ONE CYCLIC OLIGOSACCHARIDE” (Virginia Commonwealth University, priority 2016, published 2023)

Assay: Effect of phosphate and borate buffers on chemical stability (% remaining, impurity profile), osmolality, pH and appearance of 25HC3S 30 mg/mL in 250 mg/mL HPBCD at 80°C and 60°C
Type: physicochemical
Conditions: 80° C.
Protocol: A total of six 25HC3S formulations at 30 mg/mL in 250 mg/mL of 2-hydroxypropyl beta cyclodextrin (HPBCD) containing 10, 20, 50 and 100 mM phosphate buffers at pH 7.5 to 8.1 and 10 and 50 mM borate buffers at pH 9.4 were prepared for the stability study. The chemical stability (measured as % remaining of 25HC3S) and physical stability (osmolality, pH and appearance) of the formulations were monitored under accelerated conditions for up to 7 days at 80° C. and up to 29 days at 60° C.
Two stock solutions of phosphate buffer at 100 and 200 mM at pH 7.4 and 7.3, respectively and one borate buffer at 100 mM at pH 9.3 were prepared (Tables 22A and 22B) and used for 250 mg/mL HPBCD vehicles preparation (Table 23).
Approximately 1200 mg each of 25HC3S was weighed into 40 mL volumetric flasks and diluted to volume with the six HPBCD vehicles containing 10-100 mM phosphate buffers or 10 and 50 mM borate buffers, respectively (Table 24). The final concentration of 25HC3S was 30 mg/mL (wt/volume, without adjusting for API purity). Aliquots of 2 mL of each formulation were filled into 2 mL glass vials, stoppered and sealed for stability sample set-up at 60° C. and 80° C. to study the effect of phosphate buffer (pH 7.5-8.1) and borate buffer (pH 9.4) at various buffer concentrations on the stability of the HPBCD formulations (Table 26).
A 0.5 mL of sample solution was transferred to a 25 mL volumetric flask and QS'ed with methanol/water=95/5 for 25HC3S concentration determination by HPLC. The % remaining of 25HC3S was calculated as follows: […]

C[C@H](CCCC(C)(C)O)[C@H]1CC[C@H]2[C@@H]3CC=C4C[C@@H](OS(=O)(=O)[O-])CC[C@]4(C)[C@H]3CC[C@]12C.[Na+] [25HC3S, 5-cholesten-3, 25-diol, 3-sulfate]
% Peak Area Major Thermal Degradant at RRT = 2.64 (day 0, Phosphate 10 mM): 0.3 % Peak Area | % Peak Area 25-Hydroxy Cholesterol at RRT = 3.67 (day 0, Phosphate 20 mM): 0.0 % Peak Area | % Peak Area 25HC3S (day 0, Phosphate 20 mM): 99.7 % Peak Area | % Peak Area Major Thermal Degradant at RRT = 2.64 (day 0, Phosphate 20 mM): 0.3 % Peak Area | % Peak Area 25-Hydroxy Cholesterol at RRT = 3.67 (day 0, Phosphate 50 mM): 0.0 % Peak Area | % Peak Area 25HC3S (day 0, Phosphate 50 mM): 99.7 % Peak Area | % Peak Area Major Thermal Degradant at RRT = 2.64 (day 0, Phosphate 50 mM): 0.3 % Peak Area | % Peak Area 25-Hydroxy Cholesterol at RRT = 3.67 (day 0, Phosphate 100 mM): 0.0 % Peak Area | % Peak Area 25HC3S (day 0, Phosphate 100 mM): 99.8 % Peak Area | % Peak Area Major Thermal Degradant at RRT = 2.64 (day 0, Phosphate 100 mM): 0.3 % Peak Area | % Peak Area 25-Hydroxy Cholesterol at RRT = 3.67 (day 1, Borate 10 mM): 1.0 % Peak Area | % Peak Area 25HC3S (day 1, Borate 10 mM): 98.8 % Peak Area | % Peak Area Major Thermal Degradant at RRT = 2.64 (day 1, Borate 10 mM): 0.3 % Peak Area | % Peak Area 25-Hydroxy Cholesterol at RRT = 3.67 (day 1, Borate 50 mM): 1.0 % Peak Area | % Peak Area 25HC3S (day 1, Borate 50 mM): 98.7 % Peak Area | % Peak Area Major Thermal Degradant at RRT = 2.64 (day 1, Borate 50 mM): 0.3 % Peak Area | % Peak Area 25-Hydroxy Cholesterol at RRT = 3.67 (day 1, Phosphate 10 mM): 0.9 % Peak Area | % Peak Area 25HC3S (day 1, Phosphate 10 mM): 98.9 % Peak Area | % Peak Area Major Thermal Degradant at RRT = 2.64 (day 1, Phosphate 10 mM): 0.3 % Peak Area | % Peak Area 25-Hydroxy Cholesterol at RRT = 3.67 (day 1, Phosphate 20 mM): 1.0 % Peak Area | % Peak Area 25HC3S (day 1, Phosphate 20 mM): 98.8 % Peak Area | % Peak Area Major Thermal Degradant at RRT = 2.64 (day 1, Phosphate 20 mM): 0.3 % Peak Area | % Peak Area 25-Hydroxy Cholesterol at RRT = 3.67 (day 1, Phosphate 50 mM): 1.0 % Peak Area | % Peak Area 25HC3S (day 1, Phosphate 50 mM): 98.9 % Peak Area | % Peak Area Major Thermal Degradant at RRT = 2.64 (day 1, Phosphate 50 mM): 0.2 % Peak Area | % Peak Area 25-Hydroxy Cholesterol at RRT = 3.67 (day 1, Phosphate 100 mM): 0.9 % Peak Area | % Peak Area 25HC3S (day 1, Phosphate 100 mM): 98.8 % Peak Area | % Peak Area Major Thermal Degradant at RRT = 2.64 (day 1, Phosphate 100 mM): 0.3 % Peak Area | % Peak Area 25-Hydroxy Cholesterol at RRT = 3.67 (day 2, Borate 10 mM): 1.9 % Peak Area | % Peak Area 25HC3S (day 2, Borate 10 mM): 97.9 % Peak Area | % Peak Area Major Thermal Degradant at RRT = 2.64 (day 2, Borate 10 mM): 0.3 % Peak Area | % Peak Area 25-Hydroxy Cholesterol at RRT = 3.67 (day 2, Borate 50 mM): 2.0 % Peak Area | % Peak Area 25HC3S (day 2, Borate 50 mM): 97.8 % Peak Area | % Peak Area Major Thermal Degradant at RRT = 2.64 (day 2, Borate 50 mM): 0.3 % Peak Area | % Peak Area 25-Hydroxy Cholesterol at RRT = 3.67 (day 2, Phosphate 10 mM): 1.9 % Peak Area | % Peak Area 25HC3S (day 2, Phosphate 10 mM): 97.9 % Peak Area | % Peak Area Major Thermal Degradant at RRT = 2.64 (day 2, Phosphate 10 mM): 0.3 % Peak Area | % Peak Area 25-Hydroxy Cholesterol at RRT = 3.67 (day 2, Phosphate 20 mM): 1.9 % Peak Area | % Peak Area 25HC3S (day 2, Phosphate 20 mM): 98.0 % Peak Area | % Peak Area Major Thermal Degradant at RRT = 2.64 (day 2, Phosphate 20 mM): 0.2 % Peak Area | % Peak Area 25-Hydroxy Cholesterol at RRT = 3.67 (day 2, Phosphate 50 mM): 2.0 % Peak Area | % Peak Area 25HC3S (day 2, Phosphate 50 mM): 97.8 % Peak Area | % Peak Area Major Thermal Degradant at RRT = 2.64 (day 2, Phosphate 50 mM): 0.3 % Peak Area | % Peak Area 25-Hydroxy Cholesterol at RRT = 3.67 (day 2, Phosphate 100 mM): 2.0 % Peak Area | % Peak Area 25HC3S (day 2, Phosphate 100 mM): 97.8 % Peak Area | % Peak Area Major Thermal Degradant at RRT = 2.64 (day 2, Phosphate 100 mM): 0.3 % Peak Area | % Peak Area 25-Hydroxy Cholesterol at RRT = 3.67 (day 3, Borate 10 mM): 2.8 % Peak Area | % Peak Area 25HC3S (day 3, Borate 10 mM): 97.0 % Peak Area | % Peak Area Major Thermal Degradant at RRT = 2.64 (day 3, Borate 10 mM): 0.3 % Peak Area | % Peak Area 25-Hydroxy Cholesterol at RRT = 3.67 (day 3, Borate 50 mM): 3.0 % Peak Area | % Peak Area 25HC3S (day 3, Borate 50 mM): 96.9 % Peak Area | % Peak Area Major Thermal Degradant at RRT = 2.64 (day 3, Borate 50 mM): 0.2 % Peak Area | % Peak Area 25-Hydroxy Cholesterol at RRT = 3.67 (day 3, Phosphate 10 mM): 4.3 % Peak Area | % Peak Area 25HC3S (day 3, Phosphate 10 mM): 95.6 % Peak Area | % Peak Area Major Thermal Degradant at RRT = 2.64 (day 3, Phosphate 10 mM): 0.2 % Peak Area | % Peak Area 25-Hydroxy Cholesterol at RRT = 3.67 (day 3, Phosphate 20 mM): 3.5 % Peak Area | % Peak Area 25HC3S (day 3, Phosphate 20 mM): 96.4 % Peak Area | % Peak Area Major Thermal Degradant at RRT = 2.64 (day 3, Phosphate 20 mM): 0.2 % Peak Area | % Peak Area 25-Hydroxy Cholesterol at RRT = 3.67 (day 3, Phosphate 50 mM): 3.3 % Peak Area | % Peak Area 25HC3S (day 3, Phosphate 50 mM): 96.5 % Peak Area | % Peak Area Major Thermal Degradant at RRT = 2.64 (day 3, Phosphate 50 mM): 0.3 % Peak Area | % Peak Area 25-Hydroxy Cholesterol at RRT = 3.67 (day 3, Phosphate 100 mM): 3.2 % Peak Area | % Peak Area 25HC3S (day 3, Phosphate 100 mM): 96.6 % Peak Area | % Peak Area Major Thermal Degradant at RRT = 2.64 (day 3, Phosphate 100 mM): 0.3 % Peak Area | % Peak Area 25-Hydroxy Cholesterol at RRT = 3.67 (day 7, Borate 10 mM): 7.3 % Peak Area | % Peak Area 25HC3S (day 7, Borate 10 mM): 92.5 % Peak Area | % Peak Area Major Thermal Degradant at RRT = 2.64 (day 7, Borate 10 mM): 0.2 % Peak Area | % Peak Area 25-Hydroxy Cholesterol at RRT = 3.67 (day 7, Borate 50 mM): 6.2 % Peak Area | % Peak Area 25HC3S (day 7, Borate 50 mM): 93.6 % Peak Area | % Peak Area Major Thermal Degradant at RRT = 2.64 (day 7, Borate 50 mM): 0.3 % Peak Area | % Peak Area 25-Hydroxy Cholesterol at RRT = 3.67 (day 7, Phosphate 10 mM): 27.1 % Peak Area | % Peak Area 25HC3S (day 7, Phosphate 10 mM): 72.3 % Peak Area | % Peak Area Major Thermal Degradant at RRT = 2.64 (day 7, Phosphate 10 mM): 0.7 % Peak Area | % Peak Area 25-Hydroxy Cholesterol at RRT = 3.67 (day 7, Phosphate 20 mM): 19.8 % Peak Area | % Peak Area 25HC3S (day 7, Phosphate 20 mM): 79.9 % Peak Area | % Peak Area Major Thermal Degradant at RRT = 2.64 (day 7, Phosphate 20 mM): 0.2 % Peak Area | % Peak Area 25-Hydroxy Cholesterol at RRT = 3.67 (day 7, Phosphate 50 mM): 11.6 % Peak Area | % Peak Area 25HC3S (day 7, Phosphate 50 mM): 88.2 % Peak Area | % Peak Area Major Thermal Degradant at RRT = 2.64 (day 7, Phosphate 50 mM): 0.2 % Peak Area | % Peak Area 25-Hydroxy Cholesterol at RRT = 3.67 (day 7, Phosphate 100 mM): 9.8 % Peak Area | % Peak Area 25HC3S (day 7, Phosphate 100 mM): 90.0 % Peak Area | % Peak Area Major Thermal Degradant at RRT = 2.64 (day 7, Phosphate 100 mM): 0.2 % Peak Area
